Source: publication PMC10681007, “Targeted Degradation of XIAP is Sufficient and Specific to Induce Apoptosis in MYCN-overexpressing High-risk Neuroblastoma” (Cancer Research Communications, 2023)
Starred links: 1 amine or outer side, 2 acyl side, 3 side chain; linkers in the order of their positions; H or OH if unused. Positions of bridges follow the written chain, without caps; N, C: chain ends. Non-standard residues stand in square brackets, D forms with d. Residues, ends and D or L forms follow the SMILES beside them. Chains are numbered I, II in the order given. Hexamethylenediamine = C(CCCN[*:2])CCN[*:1]; Dip = N[C@H](C(=O)O)C(c1ccccc1)c1ccccc1; Chg = N[C@H](C(=O)O)C1CCCCC1; NMeA = CN[C@@H](C)C(=O)O

Tests used:
Assay type in all cases: cell-based, Human
[1] = system: neuroblastoma cells across the panel of cell lines; test: Cell viability, IC50 range across the panel; conditions: range over cell lines, doses 0–100 µmol/L, viability every 24 for 72 hours; read-out: IC50 against neuroblastoma cells across the panel of cell lines
Method: Cell viability was measured in real time using RealTime-Glo MT Cell Viability Assay as according to manufacturer's instructions from Promega. Cells were seeded at 1 × 10^4 cells per well and treated with a range of doses of indicated antagonists, followed by continuous bioluminescence reading every 24 hours for 3 days using luminescent plate reader, Varioskan ([…] software). IC50 was determined using GraphPad Prism software. To determine their efficacy in neuroblastoma, a panel of neuroblastoma cell lines including neuroblastoma patient-derived cell lines and noncancerous normal tissue-derived cell lines were treated with increasing doses of each antagonist (0-100 μmol/L), followed by real-time measurement of cell viability every 24 for 72 hours. […] Supplementary Table S2; Fig. 2A). […] Fig. 2A).

SK-N-AS = test: RealTime-Glo MT cell viability assay
Method: (§1) Cell viability was measured in real time using RealTime-Glo MT Cell Viability Assay as according to manufacturer's instructions from Promega. Cells were seeded at 1 × 10^4 cells per well and treated with a range of doses of indicated antagonists, followed by continuous bioluminescence reading every 24 hours for 3 days using luminescent plate reader, Varioskan (SkanIT software). IC50 was determined using GraphPad Prism software.
(§2) To determine their efficacy in neuroblastoma, a panel of neuroblastoma cell lines including neuroblastoma patient-derived cell lines and noncancerous normal tissue-derived cell lines were treated with increasing doses of each antagonist (0–100 µmol/L), followed by real-time measurement of cell viability every 24 for 72 hours.

CHP212 = test: RealTime-Glo MT cell viability assay
Method: as §1, §2

NB1 = test: RealTime-Glo MT cell viability assay
Method: as §1, §2

IMR-32 = test: RealTime-Glo MT cell viability assay
Method: as §1, §2

KELLY = test: RealTime-Glo MT cell viability assay
Method: as §1, §2

[2] = system: NBL-07-0317 patient-derived neuroblastoma cells; test: RealTime-Glo MT cell viability assay
Method: as §1, §2

BE(2)-C = test: RealTime-Glo MT cell viability assay
Method: as §1, §2

[3] = system: NBL27-0218A patient-derived neuroblastoma cells; test: RealTime-Glo MT cell viability assay
Method: as §1, §2

[4] = system: NBL01-1116 patient-derived neuroblastoma cells; test: RealTime-Glo MT cell viability assay
Method: as §1, §2

SK-N-SH = test: RealTime-Glo MT cell viability assay
Method: as §1, §2

[5] = system: NBL16-0118 patient-derived neuroblastoma cells; test: RealTime-Glo MT cell viability assay
Method: as §1, §2

NLF = test: RealTime-Glo MT cell viability assay
Method: as §1, §2

BE(2)-C and KELLY cells = test: Apoptosis (cleaved PARP/caspase-3, Caspase-Glo 3/7); conditions: 10 µmol/L
Method: The determination of caspase-3/7 levels as an indication for apoptosis activity was performed using a Caspase-Glo 3/7 assay kit from Promega according to manufacturer's instructions. Cells were seeded at 1 × 10^4 cells per well and treated with 10 µmol/L of IAP antagonists for various indicated timings, followed by bioluminescence measurement using luminescent plate reader, Tecan Infinite200 Pro. The activity of apoptosis was also measured by flow cytometry using the Dead Cell Apoptosis Kit with Annexin V FITC and PI (Thermo Fisher Scientific) according to manufacturer's instructions. Cells harvested from lentiviral infection were subjected to Annexin V (2.5 µL) and PI (40 ng/mL, 0.5 µL) staining, followed by flow cytometric analysis using BD LSRFortessa cell analyzer with excitation/emission spectra of 494 nm/518 nm for FITC and 535 nm/617 nm for PI.
FIGURE 2 Specific loss of XIAP expression, not c-IAP1, is required for mediating apoptosis in high-risk neuroblastoma cells. A, Summary of IAP antagonists’ efficacy in killing neuroblastoma cells. […] C, Graphical representation showing the fold change of caspase-3/7 activity relative to vehicle controls after treatment with 10 µmol/L of either A4, B3, or BV6 at indicated timings (data were expressed as mean ± SD of three independent experiments conducted in duplicates; *, P < 0.05). […]

SMILES: CN[C@@H](C)C(=O)N[C@H](C(=O)N1CCC[C@H]1C(=O)N[C@H](C(=O)NCCCCCCNC(=O)[C@@H](NC(=O)[C@@H]1CCCN1C(=O)[C@@H](NC(=O)[C@H](C)NC)C1CCCCC1)C(c1ccccc1)c1ccccc1)C(c1ccccc1)c1ccccc1)C1CCCCC1 [BV6] (I: H-[NMeA][Chg]P[Dip] / II: H-[NMeA][Chg]P[Dip]; linker I:C-II:C via Hexamethylenediamine)
- IC50 [1]: 3 to 20 µM
- IC50 (SK-N-AS; 24 hours): 4.6 µM
- IC50 (SK-N-AS; 48 hours): 3.2 µM
- IC50 (SK-N-AS; 72 hours): 2.6 µM
- IC50 (CHP212; CHP212, 24 hours): 10.4 µM
- IC50 (CHP212; CHP212, 48 hours): 9.9 µM
- IC50 (CHP212; CHP212, 72 hours): 9.3 µM
- IC50 (NB1; NB1, 24 hours): 7 µM
- IC50 (NB1; NB1, 48 hours): 5.5 µM
- IC50 (NB1; NB1, 72 hours): 3.8 µM
- IC50 (IMR-32; IMR-32, 24 hours): 7.4 µM
- IC50 (IMR-32; IMR-32, 48 hours): 5.8 µM
- IC50 (IMR-32; IMR-32, 72 hours): 4.3 µM
- IC50 (KELLY; 24 hours): 13.5 µM
- IC50 (KELLY; 48 hours): 12.9 µM
- IC50 (KELLY; 72 hours): 10.1 µM
- IC50 ([2]; NBL-07-0317, 24 hours): 8.1 µM
- IC50 ([2]; NBL-07-0317, 48 hours): 5.5 µM
- IC50 ([2]; NBL-07-0317, 72 hours): 4.8 µM
- IC50 (BE(2)-C; 24 hours): 21.2 µM
- IC50 (BE(2)-C; 48 hours): 16.8 µM
- IC50 (BE(2)-C; 72 hours): 16.5 µM
- IC50 ([3]; 24 hours): 5.9 µM
- IC50 ([3]; 48 hours): 3.6 µM
- IC50 ([3]; 72 hours): 2.6 µM
- IC50 ([4]; NBL01-1116, 24 hours): 14.5 µM
- IC50 ([4]; NBL01-1116, 48 hours): 9.3 µM
- IC50 ([4]; NBL01-1116, 72 hours): 8.5 µM
- IC50 (SK-N-SH; 24 hours): 12.4 µM
- IC50 (SK-N-SH; 48 hours): 10.5 µM
- IC50 (SK-N-SH; 72 hours): 9.7 µM
- IC50 ([5]; NBL16-0118, 24 hours): 5100 nM
- IC50 ([5]; NBL16-0118, 48 hours): 2800 nM
- IC50 ([5]; NBL16-0118, 72 hours): 2300 nM
- IC50 (NLF; 24 hours): 7.4 µM
- IC50 (NLF; 48 hours): 3.8 µM
- IC50 (NLF; 72 hours): 3.7 µM
- apoptosis (PARP and caspase-3 cleavage, caspase-3/7 activity) (BE(2)-C and KELLY cells): minimal or no apoptosis
